What follows are compounds tested on HEK293 cells (assay: HEK293 VLCFA-LPC IC50 determination (13C-labeled C26:0 LPC by UHPLC/MS)). Conditions: Homo sapiens, HEK293, HEK293 cells; average of one or more replicates; read-out: Average HEK293 IC50.
Assay type: cell-based, human
Outline: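 Suspension HEK293 cells (final 0.5 million/mL after mixing with equal volume) incubated 48 hours with compound plus 13C-acetate (1.0 mg/mL in added media), shaking at 37° C. Lipids extracted with hexane/isopropanol or methanol, C13:0 LPC standard. UHPLC/MS of 13C-labeled C26:0 LPC (638.500/104.100 m/z); IC50 by four-parameter fit.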

SMILES | IC50 [nM]
O=C(Nc1ccn(-c2cnccn2)n1)C1(c2ccccc2F)CC1 [Compound 215, 1-(2-fluorophenyl)-N-(1-pyrazin-2-ylpyrazol-3-yl)cyclopropanecarboxamide] | 610
O=C(Cc1ccccc1F)Nc1ccn(-c2cnccn2)n1 [Compound 216, 2-(2-fluorophenyl)-N-(1-pyrazin-2-ylpyrazol-3-yl)acetamide] | > 5000
O=C(Nc1ccn(-c2cncs2)n1)C1(c2ccccc2F)CC1 [Compound 217, 1-(2-fluorophenyl)-N-(1-thiazol-5-ylpyrazol-3-yl)cyclopropanecarboxamide] | 84
O=C(Cc1ccccc1)Nc1ccn(-c2cnccn2)n1 [Compound 218, 2-phenyl-N-(1-pyrazin-2-ylpyrazol-3-yl)acetamide] | > 2000
O=C(Cc1cnccn1)Nc1ccn(-c2ccccc2)n1 [Compound 219, N-(1-phenylpyrazol-3-yl)-2-pyrazin-2-yl-acetamide] | > 5000
O=C(Cc1ncccn1)Nc1ccn(-c2ccccc2)n1 [Compound 220, N-(1-phenylpyrazol-3-yl)-2-pyrimidin-2-yl-acetamide] | > 2000
O=C(Cc1ncccn1)Nc1ccn(-c2ccnc(F)c2)n1 [Compound 221, N-[1-(2-fluoro-4-pyridyl)pyrazol-3-yl]-2-pyrimidin-2-yl-acetamide] | > 5000
O=C(Nc1ccn(-c2ccnc(F)c2)n1)C1(c2cccnc2)CC1 [Compound 222, N-[1-(2-fluoro-4-pyridyl)pyrazol-3-yl]-1-(3-pyridyl)cyclopropanecarboxamide] | 2000
O=C(Nc1ccn(-c2ccnc(F)c2)n1)C1(c2ccccn2)CC1 [Compound 223, N-[1-(2-fluoro-4-pyridyl)pyrazol-3-yl]-1-(2-pyridyl)cyclopropanecarboxamide] | 70
O=C(Nc1ccn(-c2ccccc2)n1)C1(c2cccnc2)CC1 [Compound 224, N-(1-phenylpyrazol-3-yl)-1-(3-pyridyl)cyclopropanecarboxamide] | 1400
O=C(Nc1ccn(-c2ccccc2)n1)C1(c2ccccn2)CC1 [Compound 225, N-(1-phenylpyrazol-3-yl)-1-(2-pyridyl)cyclopropanecarboxamide] | 75
N#Cc1ccc(C2(C(=O)Nc3ccn(-c4ccnc(F)c4)n3)CC2)cc1 [Compound 226, 1-(4-cyanophenyl)-N-[1-(2-fluoro-4-pyridyl)pyrazol-3-yl]cyclopropanecarboxamide] | 110
N#Cc1ccc(C2(C(=O)Nc3ccn(-c4ccccc4)n3)CC2)cc1 [Compound 227, 1-(4-cyanophenyl)-N-(1-phenylpyrazol-3-yl)cyclopropanecarboxamide] | 290
Cn1ccc(-n2ccc(NC(=O)Cc3ccccc3)n2)n1 [Compound 228, N-[1-(1-methylpyrazol-3-yl)pyrazol-3-yl]-2-phenyl-acetamide] | > 5000
Cn1ccc(-n2ccc(NC(=O)C3(c4ccccc4F)CC3)n2)n1 [Compound 229, 1-(2-fluorophenyl)-N-[1-(1-methylpyrazol-3-yl)pyrazol-3-yl]cyclopropanecarboxamide] | 3500
Cn1ccc(-n2ccc(NC(=O)Cc3ccccc3F)n2)n1 [Compound 230, 2-(2-fluorophenyl)-N-[1-(1-methylpyrazol-3-yl)pyrazol-3-yl]acetamide] | > 5000
Cn1ccc(-n2ccc(NC(=O)C3(c4ccccc4)CC3)n2)n1 [Compound 231, N-[1-(1-methylpyrazol-3-yl)pyrazol-3-yl]-1-phenyl-cyclopropanecarboxamide] | > 5000
O=C(Nc1ccn(-c2cnccn2)n1)C1(c2ccccc2)CC1 [Compound 233, 1-phenyl-N-(1-pyrazin-2-ylpyrazol-3-yl)cyclopropanecarboxamide] | 1500
O=C(Nc1ccn(-c2cccnc2)n1)C1(c2ccccc2)CC1 [Compound 234, 1-phenyl-N-[1-(3-pyridyl)pyrazol-3-yl]cyclopropanecarboxamide] | 29
O=C(Cc1ccccc1F)Nc1ccn(-c2cccnc2)n1 [Compound 235, 2-(2-fluorophenyl)-N-[1-(3-pyridyl)pyrazol-3-yl]acetamide] | 320
O=C(Cc1cncnc1)Nc1ccn(-c2ccnc(F)c2)n1 [Compound 236, N-[1-(2-fluoro-4-pyridyl)pyrazol-3-yl]-2-pyrimidin-5-yl-acetamide] | > 5000
O=C(Nc1ccn(-c2ccnc(F)c2)n1)C1(c2ccccc2)CC1 [Compound 237, N-[1-(2-fluoro-4-pyridyl)pyrazol-3-yl]-1-phenyl-cyclopropanecarboxamide] | 22

SMILES | IC50 [nM]
O=C(Nc1ccn(-c2ccnc(F)c2)n1)C1(c2ccc(I)cc2)CC1 [Compound 238, N-[1-(2-fluoro-4-pyridyl)pyrazol-3-yl]-1-(4-iodophenyl)cyclopropanecarboxamide] | 120
O=C(Nc1ccn(-c2cccnn2)n1)C1(c2ccccc2F)CC1 [Compound 239, 1-(2-fluorophenyl)-N-(1-pyridazin-3-ylpyrazol-3-yl)cyclopropanecarboxamide] | 300
O=C(Nc1ccn(-c2ncccn2)n1)C1(c2ccccc2F)CC1 [Compound 240, 1-(2-fluorophenyl)-N-(1-pyrimidin-2-ylpyrazol-3-yl)cyclopropanecarboxamide] | 4400
Cc1ncc(-n2ccc(NC(=O)C3(c4ccccc4F)CC3)n2)cn1 [Compound 241, 1-(2-fluorophenyl)-N-[1-(2-methylpyrimidin-5-yl)pyrazol-3-yl]cyclopropanecarboxamide] | > 5000
N#Cc1ccccc1C1(C(=O)Nc2ccn(-c3ccccc3)n2)CC1 [Compound 242, 1-(2-cyanophenyl)-N-(1-phenylpyrazol-3-yl)cyclopropanecarboxamide] | > 2000
N#Cc1cccc(C2(C(=O)Nc3ccn(-c4ccnc(F)c4)n3)CC2)c1 [Compound 243, 1-(3-cyanophenyl)-N-[1-(2-fluoro-4-pyridyl)pyrazol-3-yl]cyclopropanecarboxamide] | 310
N#Cc1cccc(C2(C(=O)Nc3ccn(-c4ccccc4)n3)CC2)c1 [Compound 244, 1-(3-cyanophenyl)-N-(1-phenylpyrazol-3-yl)cyclopropanecarboxamide] | 280
Cc1cccc(C2(C(=O)Nc3ccn(-c4ccnc(F)c4)n3)CC2)c1 [Compound 245, N-[1-(2-fluoro-4-pyridyl)pyrazol-3-yl]-1-(m-tolyl)cyclopropanecarboxamide] | 260
CCOc1ccc(C2(C(=O)Nc3ccn(-c4ccnc(F)c4)n3)CC2)cc1 [Compound 246, 1-(4-ethoxyphenyl)-N-[1-(2-fluoro-4-pyridyl)pyrazol-3-yl]cyclopropanecarboxamide] | 2800
N#Cc1ccccc1C1(C(=O)Nc2ccn(-c3ccnc(F)c3)n2)CC1 [Compound 247, 1-(2-cyanophenyl)-N-[1-(2-fluoro-4-pyridyl)pyrazol-3-yl]cyclopropanecarboxamide] | 2500
Cc1cc(C)cc(C2(C(=O)Nc3ccn(-c4ccnc(F)c4)n3)CC2)c1 [Compound 248, 1-(3,5-dimethylphenyl)-N-[1-(2-fIuoro-4-pyridyl)pyrazol-3-yl]cyclopropanecarboxamide] | > 5000
COc1ccc(C2(C(=O)Nc3ccn(-c4ccnc(F)c4)n3)CC2)cc1 [Compound 249, N-[1-(2-fluoro-4-pyridyl)pyrazol-3-yl]-1-(4-methoxyphenyl)cyclopropanecarboxamide] | 640
COc1cccc(C2(C(=O)Nc3ccn(-c4ccnc(F)c4)n3)CC2)c1 [Compound 250, N-[1-(2-fluoro-4-pyridyl)pyrazol-3-yl]-1-(3-methoxyphenyl)cyclopropanecarboxamide] | 170
O=C(Nc1ccn(-c2ccnc(F)c2)n1)C1(c2ccccc2Cl)CC1 [Compound 251, 1-(2-chlorophenyl)-N-[1-(2-fluoro-4-pyridyl)pyrazol-3-yl]cyclopropanecarboxamide] | 110
Cc1ccccc1C1(C(=O)Nc2ccn(-c3ccnc(F)c3)n2)CC1 [Compound 252, N-[1-(2-fluoro-4-pyridyl)pyrazol-3-yl]-1-(o-tolyl)cyclopropanecarboxamide] | 400
O=C(Nc1ccn(-c2ccnc(F)c2)n1)C1(c2ccc(Cl)cc2Cl)CC1 [Compound 253, 1-(2,4-dichlorophenyl)-N-[1-(2-fluoro-4-pyridyl)pyrazol-3-yl]cyclopropanecarboxamide] | 120
O=C(Nc1ccn(-c2ccnc(F)c2)n1)C1(c2cccc(F)c2)CC1 [Compound 254, 1-(3-fluorophenyl)-N-[1-(2-fluoro-4-pyridyl)pyrazol-3-yl]cyclopropanecarboxamide] | 190
O=C(Nc1ccn(-c2ccnc(F)c2)n1)C1(c2ccc(F)cc2)CC1 [Compound 255, 1-(4-fluorophenyl)-N-[1-(2-fluoro-4-pyridyl)pyrazol-3-yl]cyclopropanecarboxamide] | 100
O=C(Nc1ccn(-c2ccnc(F)c2)n1)C1(c2cccc(Cl)c2)CC1 [Compound 256, 1-(3-chlorophenyl)-N-[1-(2-fluoro-4-pyridyl)pyrazol-3-yl]cyclopropanecarboxamide] | 300
O=C(Nc1ccn(-c2ccnc(F)c2)n1)C1(c2ccc(Cl)cc2)CC1 [Compound 257, 1-(4-chlorophenyl)-N-[1-(2-fluoro-4-pyridyl)pyrazol-3-yl]cyclopropanecarboxamide] | 340
[2H]c1nc(C)nc([2H])c1-n1ccc(NC(=O)C2(c3ccccc3F)CC2)n1 [Compound 258, N-[1-(4,6-dideuterio-2-methyl-pyrimidin-5-yl)pyrazol-3-yl]-1-(2-fluorophenyl)cyclopropanecarboxamide] | > 5000
COc1cc(-n2ccc(NC(=O)C3(c4ccccc4F)CC3)n2)ccn1 [Compound 259, 1-(2-fluorophenyl)-N-(1-(2-methoxypyridin-4-yl)-1H-pyrazol-3-yl)cyclopropane-1-carboxamide] | 51
